pIC50: −log10 of the molar value.
Test system: 885512-296-R-J2-PDC complex spheroid viability
Test: Anticancer human tumor 885512-296-R-J2-PDC patient-derived breast carcinoma cell line growth inhibition [GQUAD]
Settings: for pIC50: curve of first compound; for viability, T/C: stronger effect = lower value; active means viability on the fitted dose curve at most 10% of control; inactive means the rest
Outline: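 Multi-cell-type spheroids of tumor cells with HUVEC and mesenchymal stem cells, treated with drug combinations. Concentrations descend in half-log steps from near clinical Cmax, or from 10 microM where Cmax is unknown; viability read-out.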

[1] = second compound 0.0316 µM, first compound 0.0316 µM
[2] = second compound 0.0316 µM, first compound 0.1 µM
[3] = second compound 0.0316 µM, first compound 0.316 µM
[4] = second compound 0.0316 µM, first compound 1 µM
[5] = second compound 0.0316 µM, first compound 3.16 µM
[6] = second compound 0.0316 µM, first compound 10 µM
[7] = second compound 0.1 µM, first compound 0.0316 µM
[8] = second compound 0.1 µM, first compound 0.1 µM
[9] = second compound 0.1 µM, first compound 0.316 µM
[10] = second compound 0.1 µM, first compound 1 µM
[11] = second compound 0.1 µM, first compound 3.16 µM
[12] = second compound 0.1 µM, first compound 10 µM
[13] = second compound 0.316 µM, first compound 0.0316 µM
[14] = second compound 0.316 µM, first compound 0.1 µM
[15] = second compound 0.316 µM, first compound 0.316 µM
[16] = second compound 0.316 µM, first compound 1 µM
[17] = second compound 0.316 µM, first compound 3.16 µM
[18] = second compound 0.316 µM, first compound 10 µM
[19] = second compound 1 µM, first compound 0.0316 µM
[20] = second compound 1 µM, first compound 0.1 µM
[21] = second compound 1 µM, first compound 0.316 µM
[22] = second compound 1 µM, first compound 1 µM
[23] = second compound 1 µM, first compound 3.16 µM
[24] = second compound 1 µM, first compound 10 µM
[25] = second compound 3.16 µM, first compound 0.0316 µM
[26] = second compound 3.16 µM, first compound 0.1 µM
[27] = second compound 3.16 µM, first compound 0.316 µM
[28] = second compound 3.16 µM, first compound 1 µM
[29] = second compound 3.16 µM, first compound 3.16 µM
[30] = second compound 3.16 µM, first compound 10 µM
[31] = second compound 10 µM, first compound 0.0316 µM
[32] = second compound 10 µM, first compound 0.1 µM
[33] = second compound 10 µM, first compound 0.316 µM
[34] = second compound 10 µM, first compound 1 µM
[35] = second compound 10 µM, first compound 3.16 µM
[36] = second compound 10 µM, first compound 10 µM
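Further: spheroids exposed to the compounds for one week.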
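Wherever viability, T/C is given: percent of tumor spheroid viability relative to DMSO vehicle control wells.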

COc1cc(C2c3cc4c(cc3C(OC3OC5COC(C)OC5C(O)C3O)C3COC(=O)C23)OCO4)cc(OC)c1O (stereo not drawn) + Cc1[nH]c2ccc(F)cc2c1-c1nc2c3cccnc3c3ncccc3c2[nH]1
inactive: viability, T/C [1] 96.3% | viability, T/C [2] 86.7% | viability, T/C [3] 77.3% | viability, T/C [4] 41% | viability, T/C [5] 13.6% | viability, T/C [7] 117% | viability, T/C [8] 91.5% | viability, T/C [9] 94.2% | viability, T/C [10] 39.9% | viability, T/C [11] 11.4% | viability, T/C [13] 91.8% | viability, T/C [14] 98.4% | viability, T/C [15] 82.1% | viability, T/C [16] 36.1% | viability, T/C [17] 16.5% | viability, T/C [18] 8.49% | viability, T/C [19] 70.5% | viability, T/C [20] 76% | viability, T/C [21] 62.3% | viability, T/C [22] 37.9% | viability, T/C [23] 13.7% | viability, T/C [25] 21.3% | viability, T/C [26] 13.6% | viability, T/C [27] 15.8%
6.15: pIC50 (second compound 0.316 µM)
> 7.50: pIC50 (second compound 3.16 µM) | pIC50 (second compound 10 µM)
6.13: pIC50 (second compound 0.0316 µM)
active: viability, T/C [6] 10.1% | viability, T/C [12] 10% | viability, T/C [24] 6.78% | viability, T/C [28] 7.13% | viability, T/C [29] 4.87% | viability, T/C [30] 2.93% | viability, T/C [31] 1.61% | viability, T/C [32] 3.08% | viability, T/C [33] 1.52% | viability, T/C [34] 1.53% | viability, T/C [35] 1.51% | viability, T/C [36] 1.37%
6.09: pIC50 (second compound 0.1 µM)
6.24: pIC50 (second compound 1 µM)

COc1cccc2c1C(=O)c1c(O)c3c(c(O)c1C2=O)CC(O)(C(=O)CO)CC3OC1CC(N)C(O)C(C)O1 (stereo not drawn) + Cc1[nH]c2ccc(F)cc2c1-c1nc2c3cccnc3c3ncccc3c2[nH]1
inactive: viability, T/C [1] 96.2% | viability, T/C [2] 41.8% | viability, T/C [3] 25.3% | viability, T/C [7] 101% | viability, T/C [8] 36.4% | viability, T/C [9] 23.9% | viability, T/C [13] 85.5% | viability, T/C [14] 39.4% | viability, T/C [15] 25.1% | viability, T/C [19] 67.7% | viability, T/C [20] 32% | viability, T/C [21] 20% | viability, T/C [25] 17.2% | viability, T/C [26] 12.3%
7.08: pIC50 (second compound 0.1 µM)
7.09: pIC50 (second compound 0.316 µM)
active: viability, T/C [4] 9.04% | viability, T/C [5] 0.5% | viability, T/C [6] 2.46% | viability, T/C [10] 10.9% | viability, T/C [11] 0.36% | viability, T/C [12] 3.62% | viability, T/C [16] 8.52% | viability, T/C [17] 0.35% | viability, T/C [18] 2.33% | viability, T/C [22] 7.54% | viability, T/C [23] 0.39% | viability, T/C [24] 2.51% | viability, T/C [27] 4.34% | viability, T/C [28] 2.57% | viability, T/C [29] 0.34% | viability, T/C [30] 1.2% | viability, T/C [31] 1.64% | viability, T/C [32] 1.76% | viability, T/C [33] 2.1% | viability, T/C [34] 1.15% | viability, T/C [35] 0.87% | viability, T/C [36] 0.81%
7.24: pIC50 (second compound 1 µM)
7.05: pIC50 (second compound 0.0316 µM)
> 7.50: pIC50 (second compound 3.16 µM) | pIC50 (second compound 10 µM)

Cn1ncnc1[C@H]1c2n[nH]c(=O)c3cc(F)cc(c23)N[C@@H]1c1ccc(F)cc1 + Cc1[nH]c2ccc(F)cc2c1-c1nc2c3cccnc3c3ncccc3c2[nH]1
inactive: viability, T/C (second compound 0.0316 µM, first compound 0.000999 µM) 108% | viability, T/C (second compound 0.0316 µM, first compound 0.00316 µM) 84.1% | viability, T/C (second compound 0.0316 µM, first compound 0.00999 µM) 89.5% | viability, T/C [1] 86.8% | viability, T/C (second compound 0.0316 µM, first compound 0.0999 µM) 66.4% | viability, T/C [3] 46.8% | viability, T/C (second compound 0.1 µM, first compound 0.000999 µM) 104% | viability, T/C (second compound 0.1 µM, first compound 0.00316 µM) 101% | viability, T/C (second compound 0.1 µM, first compound 0.00999 µM) 93.9% | viability, T/C [7] 75.4% | viability, T/C (second compound 0.1 µM, first compound 0.0999 µM) 76.2% | viability, T/C [9] 41.1% | viability, T/C (second compound 0.316 µM, first compound 0.000999 µM) 90.8% | viability, T/C (second compound 0.316 µM, first compound 0.00316 µM) 82.9% | viability, T/C (second compound 0.316 µM, first compound 0.00999 µM) 82.1% | viability, T/C [13] 77.3% | viability, T/C (second compound 0.316 µM, first compound 0.0999 µM) 67% | viability, T/C [15] 42.1% | viability, T/C (second compound 1 µM, first compound 0.000999 µM) 70.8% | viability, T/C (second compound 1 µM, first compound 0.00316 µM) 79.3% | viability, T/C (second compound 1 µM, first compound 0.00999 µM) 67.6% | viability, T/C [19] 57.7% | viability, T/C (second compound 1 µM, first compound 0.0999 µM) 53.6% | viability, T/C [21] 34.6% | viability, T/C (second compound 3.16 µM, first compound 0.000999 µM) 25.6% | viability, T/C (second compound 3.16 µM, first compound 0.00316 µM) 23.2% | viability, T/C (second compound 3.16 µM, first compound 0.00999 µM) 17.1% | viability, T/C [25] 15.6% | viability, T/C (second compound 3.16 µM, first compound 0.0999 µM) 13.8%
6.97: pIC50 (second compound 1 µM)
6.56: pIC50 (second compound 0.0316 µM)
active: viability, T/C [27] 7.86% | viability, T/C (second compound 10 µM, first compound 0.000999 µM) 3.25% | viability, T/C (second compound 10 µM, first compound 0.00316 µM) 3.75% | viability, T/C (second compound 10 µM, first compound 0.00999 µM) 8.84% | viability, T/C [31] 2.56% | viability, T/C (second compound 10 µM, first compound 0.0999 µM) 2.53% | viability, T/C [33] 2.11%
6.63: pIC50 (second compound 0.1 µM)
6.66: pIC50 (second compound 0.316 µM)
> 9.00: pIC50 (second compound 3.16 µM) | pIC50 (second compound 10 µM)

Nc1ccn(C2OC(CO)C(O)C2(F)F)c(=O)n1 (stereo not drawn) + Cc1[nH]c2ccc(F)cc2c1-c1nc2c3cccnc3c3ncccc3c2[nH]1
> 7.50: pIC50 (second compound 0.0316 µM) | pIC50 (second compound 0.1 µM) | pIC50 (second compound 0.316 µM) | pIC50 (second compound 1 µM) | pIC50 (second compound 3.16 µM) | pIC50 (second compound 10 µM)
active: viability, T/C [2] 3.03% | viability, T/C [3] 2.43% | viability, T/C [4] 3.01% | viability, T/C [5] 3.2% | viability, T/C [6] 2.56% | viability, T/C [8] 3.26% | viability, T/C [9] 3.63% | viability, T/C [10] 3.04% | viability, T/C [11] 3% | viability, T/C [12] 3.74% | viability, T/C [14] 3.44% | viability, T/C [15] 3.02% | viability, T/C [16] 2.57% | viability, T/C [17] 2.96% | viability, T/C [18] 3.36% | viability, T/C [19] 8.48% | viability, T/C [20] 2.45% | viability, T/C [21] 2.51% | viability, T/C [22] 2.76% | viability, T/C [23] 2.94% | viability, T/C [24] 2.65% | viability, T/C [25] 2.21% | viability, T/C [26] 1.43% | viability, T/C [27] 1.74% | viability, T/C [28] 1.98% | viability, T/C [29] 1.96% | viability, T/C [30] 1.86% | viability, T/C [31] 1.33% | viability, T/C [32] 1.29% | viability, T/C [33] 1.17% | viability, T/C [34] 1.35% | viability, T/C [35] 1.44% | viability, T/C [36] 1.08%
inactive: viability, T/C [1] 14.6% | viability, T/C [7] 16.3% | viability, T/C [13] 14.6%

Reference: PubChem BioAssay AID2060490 (Molecular Pharmacology Branch, DTP, NCI, 2025)
